Results as given in patent publication US20230240296A1, “SEED TREATMENT FOR SAFENING WHEAT TO CHLOROACETAMIDE HERBICIDES” (THE BOARD OF TRUSTEES OF THE UNIVERSITY OF ARKANSAS, priority 2022, published 2023).

Tested on: wheat cultivar 'Smiths Gold'
Assay: Field trial: fenclorim seed treatment safening wheat against preemergence S-metolachlor (crop injury)
Assay type: in vivo
Description: Thus, in some embodiments, the methods of the present invention reduce herbicide-induced crop injury. The reduction in crop injury, due to a particular herbicide, provided by a particular safener can be determined by visually assessing crop injury in a plot of wheat treated with both the herbicide and the safener and comparing it to the crop injury observed in a control plot that was treated with the herbicide alone. Crop injury may be assessed by assigning the treated plot a rating on a scale of 0 to 100, wherein 0 indicates no crop injury and 100 indicates complete crop destruction. This score may be assigned, for example, by comparing the crop groundcover (i.e., green pixels) in the treated plot to that of the control plot using photographs.
Group 15 herbicides are promising candidates for controlling ryegrass in wheat. However, these herbicides are not currently registered for use in this crop. Thus, a field trial was conducted in Fayetteville, Ark. in fall of 2021 to test the ability of the safener fenclorim to protect wheat against the Group 15 herbicide S-metolachlor.
Seed from the conventional wheat cultivar ‘Smiths Gold’ was treated with various rates of the safener fenclorim (0, 0.5, and 2.0 g/kg seed). […] Crop injury and control of ryegrass were evaluated at two and three weeks after crop emergence. […]

Clc1cc(Cl)nc(-c2ccccc2)n1 [fenclorim, 4,6-dichloro-2-phenyl-pyrimidine]
safening against S-metolachlor (percentage of injury to wheat) (fenclorim seed treatment 0.5 and 2.0 g/kg seed, S-metolachlor 750 and 1120 g ai/ha preemergence, two and three weeks after crop emergence, field, Fayetteville, Ark.): significant safening was achieved | safening shown in plot photos of wheat plants (fenclorim seed treatment 0.5 or 2.0 g/kg seed, S-metolachlor 750 g ai/ha preemergent, two weeks after crop emergence): safening provided
